The term IC50 denotes the concentration at which inhibition is half-maximal. A high value points to a need for much substance.

The target in data set [1] is T1, human fatty acid amide hydrolyase (FAAH) (Homo sapiens, UniProt O00519).
T1 construct: expressed in transfected cells
T1 sequence (O00519 1-579): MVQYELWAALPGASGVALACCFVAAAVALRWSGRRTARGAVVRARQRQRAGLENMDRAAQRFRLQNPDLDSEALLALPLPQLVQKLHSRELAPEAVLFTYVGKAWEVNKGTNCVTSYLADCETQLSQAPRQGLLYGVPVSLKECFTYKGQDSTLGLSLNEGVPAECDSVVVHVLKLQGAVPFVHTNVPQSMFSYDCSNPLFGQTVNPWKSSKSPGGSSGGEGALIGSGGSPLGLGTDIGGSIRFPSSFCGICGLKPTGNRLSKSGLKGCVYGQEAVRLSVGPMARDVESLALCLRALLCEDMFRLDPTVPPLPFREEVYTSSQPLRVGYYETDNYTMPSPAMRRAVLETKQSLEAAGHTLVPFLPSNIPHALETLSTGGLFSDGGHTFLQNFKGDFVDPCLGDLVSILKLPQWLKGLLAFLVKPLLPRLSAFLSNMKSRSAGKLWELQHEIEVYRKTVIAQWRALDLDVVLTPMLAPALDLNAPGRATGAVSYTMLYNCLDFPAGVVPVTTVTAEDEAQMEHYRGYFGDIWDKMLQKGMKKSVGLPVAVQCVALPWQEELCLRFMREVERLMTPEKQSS
The data set is described as follows: Fluorogenic hFAAH assay. The format is biochemical. How it is done: hFAAH was obtained from a HEK-293 FAAH-1 overexpressing stable cell line. Cells were grown in Dulbecco’s modified Eagle medium (DMEM) containing 10% FBS, 1% penicillin/streptomycin, 1% glutamine, 1 mM sodium pyruvate, and 500 μg mL^–1 G418. Cells were harvested, and pellets were stored at −80 °C until membrane-enriched lysate preparation. The cell pellet was resuspended in 20 mM Tris HCl (pH 7.4, 0.32 M sucrose), sonicated, and centrifuged at 1000 × g (10 min, 4 °C). The collected supernatant was centrifuged at 12000 × g for 10 min at 4 °C, and the supernatants were further centrifuged at 100000 × g for 1 h at 4 °C. Membrane pellets were resuspended in PBS, protein concentration was measured, and samples were aliquoted and stored at −80 °C until use.
The fluorescence assay to measure FAAH activity was performed in 96-well black plates (Black OptiPlate-96F; PerkinElmer, Massachusetts, USA): 2.5 μg of hFAAH membrane preparation was preincubated for 50 min at 37 °C in 190 μL of assay buffer (50 mM Tris HCl pH 7.4, 0.05% fatty acid free BSA), with 5 μL of inhibitor or 5 μL of DMSO to measure FAAH total activity. […] The reaction was carried out for 45 min at 37 °C, and fluorescence was measured with an EnVision 2014 Multilabel Reader (PerkinElmer, Massachusetts, USA) (excitation wavelength 355 nm/emission wavelength 460 nm). […]

Data set [2] can be described thus: Plasma and brain concentrations in Twitcher mice. The note with it: both sexes, Twitcher (GALC–/−), mouse, ip, 1 h after last dose (day 20). The format is in vivo. How it is done:
4L;C* mice (C57BL/6 J/129SvEV) were randomly assigned to three treatment groups (N = 4–8 with mixed males and females) and dosed once a day i.p. with 90 or 30 mg kg^–1 of 22m or vehicle. Treatment started at 5 days of age for a duration of 14 days. The application volume was set to 10 μL per gram of body weight, and dosage was adjusted accordingly. Animals of all groups were sacrificed 1 h after the last dose, and the brain tissues and plasma were collected. The left brain containing cortex, cerebella, thalamus, and brainstem was analyzed for SphL levels by MS. Data were analyzed using the Student t test. The right brain containing cortex, cerebella, thalamus, and brainstem and plasma were analyzed for drug levels of 22m. All mice were housed under pathogen-free conditions in the animal facility, and animal experiment was performed according to the IACUC approved protocol (2018-0056) at Cincinnati Children’s Hospital Research Foundation. Wild Type (WT) (GALC+/+) and Twitcher (Twi) (GALC–/−) mice were genotyped by PCR as previously described.[58] Twi mice were randomly assigned to three treatment groups (N = 3 males + N = 3 females for each group) and dosed once a day i.p. with 90 or 30 mg kg^–122m or vehicle for a duration of 20 days. Treatment started at 10 days of age. The application volume was set to 10 μL per gram of body weight, and dosage was adjusted accordingly. Two groups (N = 3 males + N = 3 females for each group) of WT controls treated with vehicle or high dose (90 mg kg^–1) of 22m were also included in the study. Animals of all groups were sacrificed 1 h after the last dose, and the brain tissues and plasma were collected. The left brain containing cortex, cerebella, thalamus, and brainstem was analyzed for SphL levels by MS. Data were analyzed using the Student t test. The right brain containing cortex, cerebella, thalamus, and brainstem and plasma were analyzed for drug levels of 22m. All animal work in this study was performed in accordance with approved animal protocols from the Animal Care and Use Committee at the University of Illinois at Chicago.

Like-named read-outs stand apart in the source and are kept apart here.

The compound `CC(C)CNC(=O)n1c(=O)oc2cc(C3CCN(C)CC3)ccc21` [22m, N-Isobutyl-6-(1-methyl-4-piperidyl)-2-oxo-1,3-benzoxazole-3-carboxamide] registered an IC50 in data set [1] of 70 nM. The concentration at 1 h in data set [2] (brain, 30 mg kg^–1, Twitcher mice, 30 mg kg^–1 i.p., read-out: Cb (μM) brain concentration) turned out to be 114 µM; in data set [2] (brain, 30 mg kg^–1, Twitcher mice, 30 mg kg^–1 i.p., read-out: Cb, u (μM) brain unbounded concentration), 0.8 µM; in data set [2] (brain, 90 mg kg^–1, Twitcher mice, 90 mg kg^–1 i.p., read-out: Cb (μM) brain concentration) it was 308 µM; in data set [2] (brain, 90 mg kg^–1, Twitcher mice, 90 mg kg^–1 i.p., read-out: Cb, u (μM) brain unbounded concentration) it was 2.15 µM; in data set [2] (plasma, 30 mg kg^–1, Twitcher mice, 30 mg kg^–1 i.p., read-out: Cp (μM) plasma concentration), 0.85 µM; in data set [2] (plasma, 30 mg kg^–1, Twitcher mice, 30 mg kg^–1 i.p., read-out: Cp,u (μM) plasma unbounded concentration), 0.11 µM. The concentration at 1 h in data set [2] (plasma, 90 mg kg^–1, Twitcher mice, 90 mg kg^–1 i.p., read-out: Cp (μM) plasma concentration) came out at 3.85 µM; in data set [2] (plasma, 90 mg kg^–1, Twitcher mice, 90 mg kg^–1 i.p., read-out: Cp,u (μM) plasma unbounded concentration), 0.52 µM.

Values taken from paper PMC7997574, “Lead Optimization of Benzoxazolone Carboxamides as Orally Bioavailable and CNS Penetrant Acid Ceramidase Inhibitors” (Journal of Medicinal Chemistry, 2020).
